The assay addresses Kallikrein-6 (Homo sapiens, UniProt Q92876). The assay is described as follows: Inhibition of N-terminus His6-tagged human kallikrein 6 expressed in baculovirus infected insect sf9 cells using Boc-Phe-Ser-Arg-AMC as substrate by fluorescence analysis.

In general, IC50 refers to the concentration at which inhibition is half-maximal. A high value points to weaker potency in that assay.

As for `COc1ccc2ccc(S(=O)(=O)N(Cc3ccccc3)[C@H]3CCN(Cc4ccc(C(=N)N)s4)C3=O)cc2c1`, 1.5 µM corresponded to half-maximal inhibition (IC50). This lies in the single-digit micromolar range.
